Data published in patent US8735152B2, “Methods for inducing cell death in pluripotent stem cells and differentiated cells other than cardiac myocytes” (Daiichi Sankyo Company, Limited, priority 2009, dated 2014).

Assays:
[1] = test system: human embryonic stem cell-derived embryoid bodies; assay: Cell death inducing effect on residual stem cells in human embryonic stem cell-derived embryoid bodies and enrichment of cardiomyocytes; format: cell-based; conditions: 0.45 M or 0.6 M
Procedure: After passaging, human embryonic stem cells were subjected to suspension culture in a culture medium [α-MEM (minimum essential medium) (SIGMA), supplemented with 10% FBS (EQUITEC BIO), 100 units/ml penicillin, and 50 μg/ml streptomycin (GIBCO)] to induce formation of embryoid bodies. At 14-18 days after the start of differentiation (the start of suspension culture), autonomously pulsating cells started to differentiate, which was confirmed in a separate step that they were cardiomyocytes.
The embryoid bodies still maintained an autonomously pulsating ability after the passage of 3 months from the start of differentiation. They were partially treated with 0.1% collagenase (Wortington) and 0.1% trypsin (DIFCO) to be dispersed as fine cell masses. The cell masses were divided into two groups; one group was treated with 0.45 M mannitol (approximately equivalent to 720 mOsm/kg) for 2 hours, and the other group (control) was not treated with mannitol but treated with the same amount of a solution having the physiological osmotic pressure, Ads buffer (116.4 mM NaCl, 5.4 mM KCl, 5.6 mM dextrose, 10.9 mM NaH2PO4, 405.7 μM MgSO4, 20 mM Hepes, pH 7.3) for 2 hours. After the treatment, both cell groups were subjected to adherent culture for 3 days in a DMEM solution supplemented with 10% fetal calf serum.
The mannitol-treated cells and the control cells were analyzed in accordance with the experimental procedure of Example 1 using a mouse anti-Oct-3/4 monoclonal antibody (No. 084720 of BD Transduction Laboratories) and a goat anti-Nkx 2.5 antibody (No. N-19 of Santacruz) as primary antibodies, for the expression of the Oct-3/4 protein which was both a marker of embryonic stem cells and an intranuclear transcription factor, and for the expression of the Nkx 2.5 protein which was both a cardiomyocyte marker and an intranuclear transcription factor, respectively. The results for the control group, one of the two divided samples, are shown in FIG. 10 and the results for the test group subjected to 2-hr treatment with mannitol are shown in FIG. 11. The upper panels of FIG. 10 show the results of cardiomyocytes and the lower panels show the results of embryonic stem cells.
The embryoid bodies still maintained an autonomously pulsating ability after the passage of 3 months from the start of differentiation. They were partially treated with 0.1% collagenase (Wortington) and 0.1% trypsin (DIFCO) to be dispersed as fine cell masses. The cell masses were divided into two groups; one group was treated with saccharides (sugar alcohols: sorbitol, xylitol, and glycerol; sugars: sucrose and glucose; betaines: trimethylglycine) for 12 hours in an amount of 0.45 M (approximately equivalent to 700-780 mOsm/kg) or 0.6 M (approximately equivalent to 850-1000 mOsm/kg), and the other group (control) was not treated with those saccharides but treated with the same amount of a solution having the physiological osmotic pressure, Ads buffer (116.4 mM NaCl, 5.4 mM KCl, 5.6 mM dextrose, 10.9 mM NaH2PO4, 405.7 μM MgSO4, 20 mM Hepes, pH 7.3) for 2 hours. After the treatment, both cell groups were cultured for 12 hours in a DMEM solution supplemented with 10% fetal calf serum.
Samples of differentiated cells derived from human embryonic stem cells, as treated with 0.45 M glycerol (approximately equivalent to 710 mOsm/kg) or 0.6 M glycerol (approximately equivalent to 870 mOsm/kg), were examined for their morphology under the culture conditions. […] The cell death inducing effect was noticeable when the cells were exposed to glycerol for 10 hours and longer (FIG. 14).

[2] = Saccharide concentration and osmotic pressure of hypertonic solutions (measured values); format: physicochemical
Procedure: When the hypertonic solution having an osmotic pressure of 370 mOsm/kg or higher is prepared by adding a saccharide to the culture medium, the method of the present invention is characterized in that the hypertonic solution contains the saccharide in 0.1-1 M (mol/L), preferably 0.1-0.6 M (mol/L). The relation between the concentration of saccharide (mol/L) and the osmotic pressure (mOsm/kg) can be approximated by a substantially straight line; a hypertonic solution containing 0.1 M saccharide corresponds to one having an osmotic pressure of approximately 370 mOsm/kg and a hypertonic solution containing 1 M saccharide corresponds to one having an osmotic pressure of approximately 1300-1600 mOsm/kg.
Hypertonic solutions were prepared using various saccharides and the relation between the saccharide concentration and the osmotic pressure is shown in the following table for typical saccharides.

[3] = test system: human embryonic stem cells; assay: Cell death inducing effect on human embryonic stem cells (TMRM FACS, 5-day adherent culture); format: cell-based; conditions: 0.45 M, 2 hours
Procedure: The human embryonic stem cells were obtained from Stem Cell Research Center, Institute for Frontier Medical Sciences, Kyoto University (ES cell center sponsored by the National Bio-Resource Project) (Suemori, H et al., Biochem. Biophys. Res. Commun., Vol. 345, 2006, pp. 926-932). The cells were cultured basically in accordance with the method described in this document. To be more specific, the human embryonic stem cells were cultured to maintain their undifferentiated state using mouse embryonic fibroblasts (MEF) that had been inactivated for growth by treatment with mitomycin C. The culture medium of F12/DMEM (1:1) (SIGMA; Product No. D6421), supplemented with 20% KO-SERUM (GIBCO), 1.6 mM L-glutamine, 0.1 mM non-essential amino acids (MEM), 0.1 mM β-mercaptoethanol (2-ME; Sigma), 100 IU/ml penicillin, 100 μg/ml streptomycin sulfate, and recombinant human basic fibroblast growth factor (bFGF; Reprotech) was used. Upon passaging, the cells were treated with 0.1% type III collagenase (Wortington) at 37° C. for 10 minutes to separate embryonic stem cell colonies. After passaging, the cells were dispersed with each other using TE (0.25% trypsin (GIBCO) and 1 mM EDTA) and in accordance with a published document (Watanabe, K. et al., Nat. Biotechnol., 2007, 25: 681-686, Epub 2007 May 27), 10 μM of a ROCK inhibitor (Y27632) was added to suppress cell death. At the same time, the mitochondria in the live cells were stained with 50 nM TMRM. Part of the stained cells were treated with an α-MEM culture medium containing 0.45 M mannitol (approximately equivalent to 720 mOsm/kg) for 2, 3 or 4 hours and three samples were prepared from these cells; the rest of the stained cells were treated with a mannitol-free α-MEM culture medium for 2 hours and a sample was prepared from these cells as a control. In the control, cells were aggregated with each other to make masses, so before FACS analysis, the treated groups and the control were given another treatment with trypsin and EDTA to disperse the cells. The cells treated with mannitol for 2, 3 or 4 hours and the control cells were analyzed by FACS for the level of mitochondrial membrane potential on the basis of the fluorescent intensity of TMRM to check the state of survival of the stem cells; the results are shown in FIG. 7. […] In addition, the TMRM-stained cells were photographed, both for the case of 2-h treatment with mannitol and for the control (FIG. 8)). […] Changes in the mitochondrial membrane potential were observed using the experimental technique of Example 5, provided that the human embryonic stem cells were treated not with mannitol, but with 0.45 M of various other saccharides (sugar alcohols: sorbitol and xylitol; sugars: sucrose and glucose; betaines: trimethylglycine) (approximately equivalent to 750-780 mOsm/kg) for 2 hours.

[4] = saccharide concentration 0.45 M in culture medium
[5] = saccharide concentration 0.6 M in culture medium
[6] = saccharide concentration 0.9 M in culture medium

Osmotic pressure [2, 4] [mOsm/kg]	Osmotic pressure ([2]; saccharide concentration 0.45 M in culture medium, listed as Glycerol) [mOsm/kg]	Osmotic pressure [2, 5] [mOsm/kg]	Osmotic pressure ([2]; saccharide concentration 0.6 M in culture medium, listed as Glycerol) [mOsm/kg]	Osmotic pressure [2, 6] [mOsm/kg]	Compound	Exposure time at which the cell death inducing effect was noticeable [1] [h]	State of differentiated cells other than cardiomyocytes (morphology) [1]	Mitochondrial membrane potential (TMRM fluorescence, FACS) [3]
~710	706	~870	869	1232	OCC(O)CO [glycerol]	≥ 10	almost all of the differentiated cells other than cardiomyocytes had been dead	
748		922		1289	OC[C@@H](O)[C@@H](O)[C@H](O)[C@@H](O)CO [sorbitol]			all of the cells treated with the above-mentioned saccharides for 2 hours had lost membrane potential
779		988		1496	OC[C@H]1O[C@@](CO)(O[C@H]2O[C@H](CO)[C@@H](O)[C@H](O)[C@H]2O)[C@@H](O)[C@@H]1O [sucrose]			all of the cells treated with the above-mentioned saccharides for 2 hours had lost membrane potential
763		965		1421	C[N+](C)(C)CC(=O)[O-] [trimethylglycine]			all of the cells treated with the above-mentioned saccharides for 2 hours had lost membrane potential
779		940		1230	OC[C@@H](O)[C@H](O)[C@@H](O)CO [xylitol]			all of the cells treated with the above-mentioned saccharides for 2 hours had lost membrane potential
